The text below walks through data of patent US4260630A, “Skin diseases” (priority 1977, dated 1981).

SMILES strings stand for the structures.

For series [1], the system named is skin of homozygote albino mice strain XVII nc/Z. Put plainly: Chronic topical application on the ears of mice plus 365 nm UV irradiation (tumors, skin reactions). The class given is in vivo. As to the method:
The experiments were effected on groups of 40 mice, male and female.
After 115 topical applications of psoralen, followed each time by 10 minutes of irradiation (cumulative doses of 2.07×10^6 J/m^2), 100% of the animals developed a tumor; 50% having tumors on two ears.
(§1) 3-CPs was also tested intraperitoneally (36 injections of 0.4 mg each over a period of 7 weeks).
In all these experiments the U.V. lamp was of the type of HPW 125 W, manufactured by Philips.

Series [2] is described as follows: Light sensitivity of the drug in aqueous solution (chromatography, fluorescence spectra). The class given is physicochemical.
In a further series the test system is psoriasis lesions. Briefly: Treatment of psoriasis patients, 1% 3-CPs ointment plus 365 nm UV. The class given is in vivo. The note with it: 1% ointment. As to the method:
The effectiveness of thus-obtained 3-CPs was tested on 10 patients having ordinary psoriasis covering from 200 to 400 cm^2 of skin.
Preparation of 1% 3-CPs ointment:
1 g of 3-CPs was ground to a very fine powder and then dispersed in 70 g of "HYDROCERINE" (a commercially-available product manufactured by ROC) at 70° C. 29 ml of water were added at 70° C. in order to obtain an aqueous emulsion in oil.
The irradiation dose at 365 nm UV was of about 5 J/cm^2 per unit treatment and administered using the usual PUVA therapy set-up.

Series [3] in a line: Intraperitoneal toxicity in mice. The class given is in vivo. The note with it: i.p., 36 injections of 0.4 mg over 7 weeks. As to the method:
as §1

A further series has as its system cutaneous tissue. The note with it: in vivo; cited from earlier work.
The next series concerns Saccharomyces cerevisiae. Put plainly: Uptake and removal of the drug in yeast (incubation time, washing). The class given is cell-based. As to the method:
B--Effects of 365 nm light alone or 3-CPs, uptake and removal of the drug.
Since high doses of 365 nm light are needed to induce a killing effect in Saccharomyces cells in the presence of 3-CPs, the effects of 365 nm light alone were measured for doses up to 7500 J/m^2. It was established that, in the range of doses used for the biological experiments, there was only a small lethal effect of 365 nm light alone. Taking into account the standard errors of the surviving fraction (±10%) and the fact that part of the light energy is absorbed by the drug itself, the effect of 365 nm light alone has been neglected in the experiments.

For a further series, the system named is mice. Particulars: hairless mice; cited from earlier work.
Series [4] has as its system skin. Particulars: short treatment intervals; cited from earlier work.
The test system of series [5] is skin. Briefly: Erythema, skin injury and tanning on skin of patients. It counts as in vivo. The note with it: compared with 8-MOP. The text has this: In contrast, it has now been discovered that the mono-functional derivatives of formula I provoke absolutely no erythema, neither immediate nor postponed. No skin injury, neither macro- nor microscopic, was observed on patients. It will be readily apparent to men skilled in the art that this property is a very unique one for compounds of the psoralen family. […] Thus, undesirable cosmetic side effects appear to be absent. Consequently, these compounds are of great interest since, in contrast to 8-MOP, they permit subsequent treatment at short-time intervals for example twice a day over prolonged periods of time without any sun-burnlike injury to the skin.

A further series relates to lymphocytes. The note with it: therapeutic treatment; cited from earlier work.

`CCOC(=O)c1cc2cc3ccoc3cc2oc1=O` [Example 3-CPs, 3-carboethoxypsoralen]: in series [1] (115 applications on two ears, 30 minutes rest, 10 minutes irradiation), the “erythema, cutaneous inflammation, tumor” value is recorded as “neither erythema nor cutaneous inflammation nor any tumor”. For the same compound, in series [1] (115 applications, 450 days of observation), the mortality result is recorded as “No animal died”. Further, the “macroscopic or microscopic reaction” value in [1] (450 days of observation) is on record as “Neither macroscopic nor microscopic reaction was observed”. Further, in series [2], the light sensitivity result is on record as “light sensitive”. Besides, in series [2] (illuminated aqueous solutions), the photoproduct entry is “highly fluorescent photoproduct with the characteristics of 4',5'-dihydropsoralen”. Besides, in the series with psoriasis lesions, the “erythema or cutaneous inflammation” value is reported as “no erythema or cutaneous inflammation” and the “speed of action compared with 8-MOP” value was “slower than that of 8-MOP”. Moreover, in [3], the survival result is recorded as “All the animals remained alive”; the “weight and signs of toxicity” value is listed as “without any decrease in weight or other sign of toxicity”. Further, in the series with cutaneous tissue, the photosensitizing activity entry is “completely inactive”. Moreover, the “binding in the dark” value with Saccharomyces cerevisiae is “very loosely bound in the dark”. The “effect after one minute incubation” value in the series with Saccharomyces cerevisiae (10 μg/ml, wild-type and rad9-4) is on record as “about the maximum effect”. Also, the “killing and "petite" induction vs incubation time before irradiation” value in the series on Saccharomyces cerevisiae (10 μg/ml, wild-type and rad9-4, constant 365 nm dose) is “independent of incubation time”. The “uptake and washing out compared with 8-MOP” value in the series on Saccharomyces cerevisiae (Saccharomyces) is “taken up and washed out as readily as 8-MOP”. Moreover, the “sensitizing effect after washing” value in the series on Saccharomyces cerevisiae (doses of 365 nm light used) is reported as “no sensitizing effect after washing”.
In the case of `COc1c2occc2cc2ccc(=O)oc12` [Example 8-MOP, 8-methoxypsoralen, reference compound], in the series on mice, the “cancerogenic power in combination with U.V. radiation” value is listed as “high cancerogenic power”. The “erythemal reactions in the skin” value in the series on skin [4] is listed as “can cause violent erythemal reactions in the skin”. In addition, the tanning effect entry in the series with skin [5] is reported as “strong tanning effect”. In addition, the “lymphocytes in circulating blood” value in the series with lymphocytes is listed as “causes a decrease of the lymphocytes in circulating blood”.
